Measured values from article PMC12888861, “Antibacterial activity of enmetazobactam against Acinetobacter spp.: a molecular dissection of mechanism of action and resistance determinants” (Antimicrobial Agents and Chemotherapy, 2025).

Key:
[1] = system: carbapenem-susceptible A. baumannii isolates (n = 54); test: MIC, broth microdilution (EUCAST), carbapenem-susceptible A. baumannii isolates; assay type: cell-based, Acinetobacter baumannii
In short: (§1)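 Broth microdilution per EUCAST v.15 guidelines on clinical Acinetobacter isolates from a Spanish 2020 multicenter collection; enmetazobactam also tested alone. A. baumannii ATCC 19606 served as reference strain, in duplicate assays.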

[2] = system: carbapenem-resistant A. baumannii (CRAB) isolates (n = 67); test: MIC, broth microdilution (EUCAST), carbapenem-resistant A. baumannii isolates; assay type: cell-based, Acinetobacter baumannii; conditions: for MIC: Acinetobacter baumannii, MBC set
In short: as §1

[3] = Acinetobacter baumannii, carbapenem-susceptible A. baumannii isolates (n = 54), ETZ fixed 8 mg/L in combinations

CC1(C)[C@H](C(=O)O)N2C(=O)C[C@H]2S1(=O)=O [sulbactam]
100: MIC distribution 4 [1] | MIC distribution 8 [1] | MIC distribution 16 [1] | MIC distribution ≥32 [1]
0.5 µg/mL: MIC ([1]; Acinetobacter baumannii, MBC set, isolate Ab1, A. baumannii ST 164, ADC-6, OXA-91, non-CHDLs-producing) | MIC ([1]; Acinetobacter baumannii, MBC set, isolate Ab34, A. baumannii ST 2182, ADC-2, OXA-130, non-CHDLs-producing) | MIC ([1]; Acinetobacter baumannii, isolate Ab34, ST 2182, ADC-2, OXA-130, in combinations ETZ fixed at 8 mg/L) | MIC ([1]; Acinetobacter baumannii, isolate Ab112, ST 193, ADC-like, OXA-120, in combinations ETZ fixed at 8 mg/L) | MIC ([1]; Acinetobacter baumannii, isolate Ab158, ST 2034, ADC-2, OXA-217, in combinations ETZ fixed at 8 mg/L) | MIC ([1]; Acinetobacter baumannii, isolate Ab163, ST 132, ADC-2, OXA-120, in combinations ETZ fixed at 8 mg/L) | MIC ([1]; Acinetobacter baumannii, isolate Ab167, ST 1623, ADC-like, OXA-345, in combinations ETZ fixed at 8 mg/L) | MIC ([1]; Acinetobacter baumannii, isolate Ab168, ST 1470, ADC-75, OXA-402, in combinations ETZ fixed at 8 mg/L) | MIC ([1]; Acinetobacter baumannii, isolate Ab189, ST 1405, ADC-3, OXA-120, in combinations ETZ fixed at 8 mg/L) | MIC ([1]; Acinetobacter baumannii, isolate Ab190, ST 2186, ADC-6, OXA-413, in combinations ETZ fixed at 8 mg/L) | MIC ([1]; Acinetobacter baumannii, isolate Ab193, ST 164, ADC-6, OXA-91, in combinations ETZ fixed at 8 mg/L) | MIC ([1]; Acinetobacter baumannii, isolate Ab200, ST 1336, ADC-2, OXA-51, in combinations ETZ fixed at 8 mg/L) | MIC ([1]; Acinetobacter baumannii, isolate Ab203, ST 221, ADC-6, OXA-88, in combinations ETZ fixed at 8 mg/L) | MIC ([1]; Acinetobacter baumannii, isolate Ab206, ST 2187, ADC-58, OXA-69, in combinations ETZ fixed at 8 mg/L) | MIC ([1]; Acinetobacter baumannii, isolate Ab209, in combinations ETZ fixed at 8 mg/L) | MIC ([1]; Acinetobacter baumannii, isolate Ab213, in combinations ETZ fixed at 8 mg/L) | MIC ([1]; Acinetobacter baumannii, isolate Ab220, in combinations ETZ fixed at 8 mg/L)
27.8: MIC distribution 0.5 [1]
16 µg/mL: MIC ([2]; isolate Ab4, A. baumannii ST 2, ADC-30, OXA-66, ISAba1-OXA-23) | MIC ([2]; isolate Ab6, A. baumannii ST 2, ADC-30, OXA-66, ISAba1-OXA-23, TEM-12)
96.3: MIC distribution 2 [1]
100%: MIC distribution ≥64 [2]
4 µg/mL: MIC ([1]; Acinetobacter baumannii, isolate Ab80, ST 2182, ADC-6, OXA-208, in combinations ETZ fixed at 8 mg/L) | MIC ([1]; Acinetobacter baumannii, isolate Ab142, ST 1, ADC-like, OXA-69, in combinations ETZ fixed at 8 mg/L) | MIC ([2]; isolate Ab9, A. baumannii ST 2, ADC-30, OXA-66, OXA-23, TEM-12)
0: MIC distribution 0.12 [1] | MIC distribution 0.25 [1] | MIC distribution ≤0.06 [1]
79.6: MIC distribution 1 [1]
1 µg/mL: MIC ([1]; Acinetobacter baumannii, MBC set, isolate Ab11, A. baumannii ST 239, ADC-2, OXA-51, non-CHDLs-producing) | MIC ([1]; Acinetobacter baumannii, isolate Ab1, ST 164, ADC-6, OXA-91, in combinations ETZ fixed at 8 mg/L) | MIC ([1]; Acinetobacter baumannii, isolate Ab11, ST 239, ADC-2, OXA-51, in combinations ETZ fixed at 8 mg/L) | MIC ([1]; Acinetobacter baumannii, isolate Ab38, ST 866, ADC-2, OXA-385, in combinations ETZ fixed at 8 mg/L) | MIC ([1]; Acinetobacter baumannii, isolate Ab40, ST 2176, ADC-2, OXA-64, in combinations ETZ fixed at 8 mg/L) | MIC ([1]; Acinetobacter baumannii, isolate Ab50, ST 2176, ADC-2, OXA-64, in combinations ETZ fixed at 8 mg/L) | MIC ([1]; Acinetobacter baumannii, isolate Ab57, ST 1470, ADC-58, OXA-106, in combinations ETZ fixed at 8 mg/L) | MIC ([1]; Acinetobacter baumannii, isolate Ab62, ST 265, ADC-2, OXA-91, in combinations ETZ fixed at 8 mg/L) | MIC ([1]; Acinetobacter baumannii, isolate Ab67, ST 1, ADC-11, OXA-69, in combinations ETZ fixed at 8 mg/L) | MIC ([1]; Acinetobacter baumannii, isolate Ab79, ST 106, ADC-11, OXA-78, in combinations ETZ fixed at 8 mg/L) | MIC ([1]; Acinetobacter baumannii, isolate Ab93, ST 25, ADC-79, OXA-64, in combinations ETZ fixed at 8 mg/L) | MIC ([1]; Acinetobacter baumannii, isolate Ab95, ST 582, ADC-5, OXA-317, in combinations ETZ fixed at 8 mg/L) | MIC ([1]; Acinetobacter baumannii, isolate Ab96, ST 582, ADC-5, OXA-317, in combinations ETZ fixed at 8 mg/L) | MIC ([1]; Acinetobacter baumannii, isolate Ab100, ST 145, ADC-58, OXA-343, in combinations ETZ fixed at 8 mg/L) | MIC ([1]; Acinetobacter baumannii, isolate Ab110, ST 1623, ADC-3, OXA-70, in combinations ETZ fixed at 8 mg/L) | MIC ([1]; Acinetobacter baumannii, isolate Ab124, ST 2176, ADC-2, OXA-64, in combinations ETZ fixed at 8 mg/L) | MIC ([1]; Acinetobacter baumannii, isolate Ab128, ST 2176, ADC-2, OXA-64, in combinations ETZ fixed at 8 mg/L) | MIC ([1]; Acinetobacter baumannii, isolate Ab131, ST 687, ADC-like, OXA-208, in combinations ETZ fixed at 8 mg/L) | MIC ([1]; Acinetobacter baumannii, isolate Ab136, ST 2183, ADC-like, OXA-66, in combinations ETZ fixed at 8 mg/L) | MIC ([1]; Acinetobacter baumannii, isolate Ab139, ST 54, ADC-like, OXA-365, in combinations ETZ fixed at 8 mg/L) | MIC ([1]; Acinetobacter baumannii, isolate Ab149, ST 1112, ADC-6, OXA-407, in combinations ETZ fixed at 8 mg/L) | MIC ([1]; Acinetobacter baumannii, isolate Ab152, ST 132, ADC-2, OXA-120, in combinations ETZ fixed at 8 mg/L) | MIC ([1]; Acinetobacter baumannii, isolate Ab170, ST 2110, ADC-4, OXA-338, in combinations ETZ fixed at 8 mg/L) | MIC ([1]; Acinetobacter baumannii, isolate Ab185, ST 2, ADC-26, OXA-66, in combinations ETZ fixed at 8 mg/L) | MIC ([1]; Acinetobacter baumannii, isolate Ab187, ST 105, ADC-2, OXA-430, in combinations ETZ fixed at 8 mg/L) | MIC ([1]; Acinetobacter baumannii, isolate Ab188, ST 203, ADC-6, OXA-217, PDC-1, in combinations ETZ fixed at 8 mg/L) | MIC ([1]; Acinetobacter baumannii, isolate Ab195, ST 1, ADC-11, OXA-69, in combinations ETZ fixed at 8 mg/L) | MIC ([1]; Acinetobacter baumannii, isolate Ab202, ST 1, ADC-11, OXA-69, in combinations ETZ fixed at 8 mg/L) | MIC ([1]; Acinetobacter baumannii, isolate Ab218, in combinations ETZ fixed at 8 mg/L) | MIC50 [1, 3]
2 µg/mL: MIC ([1]; Acinetobacter baumannii, isolate Ab58, ST 6, ADC-2, OXA-94, in combinations ETZ fixed at 8 mg/L) | MIC ([1]; Acinetobacter baumannii, isolate Ab61, ST 1639, ADC-7, OXA-64, in combinations ETZ fixed at 8 mg/L) | MIC ([1]; Acinetobacter baumannii, isolate Ab81, ST 25, ADC-79, OXA-64, in combinations ETZ fixed at 8 mg/L) | MIC ([1]; Acinetobacter baumannii, isolate Ab127, ST 2176, ADC-2, OXA-64, in combinations ETZ fixed at 8 mg/L) | MIC ([1]; Acinetobacter baumannii, isolate Ab130, ST 32, ADC-79, OXA-100, in combinations ETZ fixed at 8 mg/L) | MIC ([1]; Acinetobacter baumannii, isolate Ab132, ST 1112, ADC-79, OXA-89, in combinations ETZ fixed at 8 mg/L) | MIC ([1]; Acinetobacter baumannii, isolate Ab143, ST 1328, ADC-76, OXA-408, in combinations ETZ fixed at 8 mg/L) | MIC ([1]; Acinetobacter baumannii, isolate Ab150, ST 2184, ADC-like, OXA-64, in combinations ETZ fixed at 8 mg/L) | MIC ([1]; Acinetobacter baumannii, isolate Ab172, ST 2185, ADC-5, OXA-217, in combinations ETZ fixed at 8 mg/L) | MIC90 [1, 3]
